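1) Cells in 96-well plates. 2) Compound, 48 h, 5 concentrations. 3) Linear interpolation between surrounding doses. 4) Unreached endpoint = highest concentration. Abbreviation: GI50, concentration required for 50% inhibition of growth.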 Activity calls are given as the source filed them. Rule as the data show it: active = GI50 up to about 1.1 µM and inactive = higher.

Some test systems named below: 786-0; HCC 2998; HCT-116; Hs-578T; KM12; M14; MCF7; MDA-MB-231; MDA-N; Malme-3M; NCI-H226; NCI-H460; NCI-H522; OVCAR-8; SF-539; SK-MEL-28; SK-OV-3; SN12C; U-251; A549.
Holding throughout (experiment): NCI-60 cell line screen, 48 h

In the case of `CC(C)CCCCCCCCCCCCC(=O)NCC(=O)NC1C(O)C(O)C(Nc2[nH]cnc3ncnc2-3)OC1C(O)CO` (stereo not given), the GI50 is 0.225 µM (active) in the test with 786-0; 0.00018 µM (active) in the test on HCC 2998; 0.000479 µM (active) with HCT-116; 0.172 µM (active) in the test on Hs-578T; 0.000575 µM (active) with KM12; 0.191 µM (active) with M14. Also, the GI50 is 0.0234 µM (active) with MCF7; 0.182 µM (active) in the test with MDA-MB-231; 0.229 µM (active) in the test with MDA-N; 0.000679 µM (active) with Malme-3M; 0.000552 µM (active) in the test on NCI-H226; 0.000541 µM (active) in the test with NCI-H460. The GI50 in the test on NCI-H522 is 0.000664 µM (active); with OVCAR-8, 0.000578 µM (active); in the test with SF-539, 0.000849 µM (active); in the test on SK-MEL-28, 0.0316 µM (active); in the test with SK-OV-3, 0.000671 µM (active); in the test with SN12C it was 0.000753 µM (active). In addition, the GI50 in the test with U-251 is 0.000461 µM (active).
As for `COC(=O)[C@H](C)[C@@H]1CC[C@](C)(CCC2=C(C)CCCC2(C)C)OO1`, the GI50 in the test with 786-0, in the test with A549, in the test with HCC 2998, in the test on HCT-116, in the test with Hs-578T and in the test on KM12 was > 25 µM (inactive) throughout. In addition, the GI50 in the test with M14, in the test on MCF7, with MDA-MB-231, in the test on MDA-N, with Malme-3M and with NCI-H460 was > 25 µM (inactive) throughout. Besides, the GI50 in the test on NCI-H522 was 16.1 µM (inactive); with OVCAR-8 it was > 25 µM (inactive); in the test with SF-539, > 25 µM (inactive); in the test with SK-MEL-28 it was > 25 µM (inactive); in the test with SK-OV-3 it was > 25 µM (inactive); in the test with SN12C, > 25 µM (inactive). Also, the GI50 with U-251 was > 25 µM (inactive).
`CCOC(=O)/C(=C\Nc1c(C)n(C)n(-c2ccccc2)c1=O)C(=O)c1ccccc1`: the GI50 in the test on 786-0 was > 100 µM (inactive); in the test on A549, > 100 µM (inactive); with HCC 2998, > 100 µM (inactive); in the test on HCT-116 it was > 100 µM (inactive); in the test with Hs-578T, > 100 µM (inactive); in the test with KM12 it was 0.033 µM (active). Also, the GI50 with M14, with MCF7, in the test with MDA-MB-231, in the test with MDA-N, in the test with Malme-3M and with NCI-H226 was > 100 µM (inactive) in each case. The GI50 with NCI-H460, in the test with NCI-H522, with SF-539, in the test on SK-MEL-28, in the test on SK-OV-3 and in the test on SN12C was > 100 µM (inactive) throughout. Moreover, in the test with U-251, the GI50 was > 100 µM (inactive).
On to `CC1=C(C#N)C2C(=C(C)N1)C(N)=Nc1ccccc12` (stereo not given), for which the GI50 is 43 µM (inactive) in the test on 786-0; 73.1 µM (inactive) in the test with A549; 35.2 µM (inactive) with HCC 2998; 32.6 µM (inactive) in the test on HCT-116; 23 µM (inactive) in the test with Hs-578T; 27.6 µM (inactive) in the test on KM12. The GI50 is 36.4 µM (inactive) in the test on M14; 80.5 µM (inactive) with MCF7; 31.8 µM (inactive) in the test with MDA-MB-231; 43.2 µM (inactive) with MDA-N; 37.8 µM (inactive) in the test on Malme-3M; 30 µM (inactive) in the test on NCI-H226. In addition, the GI50 was 44.4 µM (inactive) in the test on NCI-H460; 30.8 µM (inactive) in the test with NCI-H522; 55.6 µM (inactive) in the test with OVCAR-8; 29.7 µM (inactive) in the test with SF-539; 63.4 µM (inactive) with SK-MEL-28; 76.4 µM (inactive) in the test on SK-OV-3. The GI50 in the test with SN12C was 38.5 µM (inactive).
`O=C1c2ccccc2C(C2c3ccccc3C(=O)c3cc(Br)ccc32)c2ccc(Br)cc21` (stereo not given): the GI50 in the test with 786-0 was > 100 µM (inactive); in the test on A549, > 100 µM (inactive); with HCC 2998, > 100 µM (inactive); in the test on HCT-116, 59.2 µM (inactive); in the test on Hs-578T, > 100 µM (inactive); in the test with KM12, > 100 µM (inactive). The GI50 in the test on M14, in the test on MCF7, with MDA-MB-231, with MDA-N, in the test with Malme-3M and with NCI-H226 was > 100 µM (inactive) each time. The GI50 in the test with NCI-H522, in the test with OVCAR-8, in the test on SK-MEL-28, in the test with SK-OV-3, with SN12C and with U-251 was > 100 µM (inactive) in each case.
Take `O=S1(=O)c2ccccc2-c2nccc3ccnc1c23`: the GI50 in the test with 786-0 was 25.5 µM (inactive); in the test with HCC 2998 it was 12.8 µM (inactive); in the test with HCT-116 it was 12.9 µM (inactive); in the test on Hs-578T, 32.1 µM (inactive); in the test with KM12 it was 22.8 µM (inactive); in the test on M14, 19.1 µM (inactive). The GI50 in the test on MCF7 was 6.4 µM (inactive); in the test on MDA-MB-231, 17.8 µM (inactive); in the test with MDA-N it was 7.87 µM (inactive); with Malme-3M it was 21.8 µM (inactive); in the test on NCI-H226, 43.5 µM (inactive); with NCI-H460 it was 13.1 µM (inactive). The GI50 in the test with NCI-H522 was 8.07 µM (inactive); in the test on OVCAR-8, 15 µM (inactive); with SF-539, 8.57 µM (inactive); with SK-MEL-28, 55.6 µM (inactive); in the test on SK-OV-3, 56.9 µM (inactive); with SN12C, 17.8 µM (inactive). The GI50 in the test with U-251 was 28.1 µM (inactive).
Consider `COC1/C=C\C=C(/C)C(=O)NC2=CC(=O)C(N)=C(CC(C)CC(OC)C(O)C(C)C=C(C)C1OC(N)=O)C2=O` (stereo not given), for which the GI50 in the test with 786-0 is 0.368 µM (active); with A549, 0.0216 µM (active); in the test with HCC 2998 it was 0.0268 µM (active); in the test with HCT-116, 0.0233 µM (active); in the test on Hs-578T, < 0.01 µM (active); in the test with KM12, 0.0244 µM (active). Also, the GI50 in the test on M14 is 0.0204 µM (active); in the test with MCF7, 0.0416 µM (active); with MDA-MB-231, < 0.0187 µM (active); in the test on MDA-N it was < 0.0171 µM (active); with Malme-3M, 0.0231 µM (active); with NCI-H226 it was 5.87 µM (inactive). The GI50 in the test on NCI-H460 is < 0.01 µM (active); with NCI-H522, 0.0234 µM (active); with OVCAR-8 it was < 0.0203 µM (active); with SK-MEL-28 it was < 0.0266 µM (active); in the test with SK-OV-3, < 0.0123 µM (active); in the test on SN12C, 0.017 µM (active). The GI50 in the test on U-251 was < 0.01 µM (active).
As for `CC1=NN(c2cccc(Cl)c2)C2(C1=Cc1cccs1)C(Cl)C(=O)N2c1nc2ccccc2s1` (stereo not given), the GI50 was 13.8 µM (inactive) in the test on 786-0; 21.9 µM (inactive) in the test on A549; 17 µM (inactive) in the test with HCC 2998; 18.4 µM (inactive) with HCT-116; 27.4 µM (inactive) in the test on Hs-578T; 28.7 µM (inactive) in the test on KM12. Besides, the GI50 is 34.8 µM (inactive) in the test on M14; 23.2 µM (inactive) in the test with MCF7; 19.7 µM (inactive) in the test on MDA-MB-231; 22.1 µM (inactive) with MDA-N; 24.3 µM (inactive) with NCI-H226; 20 µM (inactive) with NCI-H460. Besides, the GI50 in the test with NCI-H522 was 18.5 µM (inactive); with OVCAR-8 it was 20.4 µM (inactive); in the test on SF-539 it was 15.2 µM (inactive); with SK-MEL-28 it was 39.4 µM (inactive); in the test on U-251 it was 15.1 µM (inactive).
As for `Cc1c(C(=O)N2CCN(c3ccc([N+](=O)[O-])cc3)CC2)[n+]([O-])c2cc(Cl)c(Cl)cc2[n+]1[O-]`, the GI50 in the test on 786-0 is 16.5 µM (inactive); with A549, 20.2 µM (inactive); in the test with HCC 2998, 13.2 µM (inactive); in the test with HCT-116 it was 19 µM (inactive); in the test with Hs-578T it was 22.6 µM (inactive); in the test on KM12 it was 36.8 µM (inactive). Besides, the GI50 in the test with M14 is 27.1 µM (inactive); in the test with MCF7, 16.2 µM (inactive); in the test on MDA-MB-231 it was 21.2 µM (inactive); in the test on MDA-N it was 26.7 µM (inactive); in the test on Malme-3M it was 21.8 µM (inactive); in the test with NCI-H460, 19.5 µM (inactive). In addition, the GI50 is 16.7 µM (inactive) with NCI-H522; 16.9 µM (inactive) in the test with OVCAR-8; 18.6 µM (inactive) in the test on SF-539; 26.4 µM (inactive) in the test on SK-MEL-28; 15.9 µM (inactive) in the test on SK-OV-3; 18.4 µM (inactive) with SN12C. For the same compound, in the test with U-251, the GI50 was 20.9 µM (inactive).
Regarding `COC(=O)[C@@]12CN(C)[C@@H](C(C)(C)C)N1C(=O)OC2c1ccccc1` (stereo not given in full), the GI50 with 786-0, in the test with A549, with HCC 2998, in the test on Hs-578T, in the test with KM12 and with M14 was > 100 µM (inactive) in each case. Moreover, the GI50 in the test with MCF7, in the test on MDA-MB-231, in the test with MDA-N, in the test with Malme-3M, in the test on NCI-H226 and with NCI-H460 was > 100 µM (inactive) in each case. The GI50 with NCI-H522, with OVCAR-8, with SF-539, in the test with SK-MEL-28, in the test on SK-OV-3 and with SN12C was > 100 µM (inactive) in each case. In addition, the GI50 in the test on U-251 was > 100 µM (inactive).
With `COc1ccc(/N=c2/[nH]c(N)c(C(=O)c3ccc(OC)cc3)s2)cc1`, the GI50 was 0.441 µM (active) with 786-0; 0.59 µM (active) with A549; 0.755 µM (active) in the test on HCC 2998; 0.365 µM (active) with HCT-116; 0.277 µM (active) with Hs-578T; 0.378 µM (active) with KM12. Moreover, the GI50 in the test on MCF7 is 3.23 µM (inactive); in the test with MDA-MB-231, 1 µM (active); with MDA-N, 0.0301 µM (active); with NCI-H226, 17.7 µM (inactive); with NCI-H460 it was 0.347 µM (active); with NCI-H522, 0.127 µM (active). Moreover, the GI50 in the test on OVCAR-8 was 0.537 µM (active); in the test on SF-539 it was 0.313 µM (active); with SK-MEL-28, 4.55 µM (inactive); in the test with SK-OV-3, 0.376 µM (active); with SN12C, 1.93 µM (inactive); with U-251, 0.31 µM (active).

For the origin of these results see ChEMBL document CHEMBL1201862, “PubChem BioAssay data set” (2004).
